Reference: PMC3481155, “AhR activation underlies the CYP1A autoinduction by A-998679 in rats” (Frontiers in Genetics, 2012)

Legend:
Cyp1a1 [1] = experiment: Cyp1a1 mRNA induction in primary rat hepatocytes; type: cell-based; details: 10 μM, 24 h, data not shown
Procedure: Rat hepatocytes were isolated in a perfusion procedure as described previously (Elliget and Kolaja, [1983]; Waring et al., [2001]). The beagle dog hepatocytes were isolated in the same manner, except for adjustment of flow rate and buffer volume to scale to liver size. Cells were plated at a seeding density of 1.0 × 10^6 cells per well on 6-well, collagen-type I coated plates (BD Biosciences, Bedford, MA) in hepatocyte plating medium (Celsis, Baltimore, MD). Cells were allowed to attach for 24 h in a 37°C humidified incubator with a 5% CO2 atmosphere and were dosed for 24 h (rat) or 48 h (dog) with vehicle control [0.1% DMSO (v/v)] or 10 μM A-998679 in fresh treatment media (Celsis hepatocyte incubation media) every 24 h. After the last incubation, cells were lysed in 1 ml of Qiazol (Qiagen) and stored at −80°C until RNA isolation. Cryopreserved human hepatocytes (donor designation Hu4198; Invitrogen Life Technologies, Carlsbad, CA) were thawed and plated according to the manufacturer's protocol and allowed to incubate for 24 h. […]
RNA samples were diluted with RNase-free molecular biology grade water to a concentration of 20 ng/μl total RNA. […] Results were analyzed by calculating the fold change of CYP1A1 and/or CYP1A2 mRNA levels normalized to 28S rRNA (ΔΔ Ct) in compound treated cells or tissues compared to vehicle levels. […]

Cyp1a1 [2] = experiment: Immunohistochemistry of Cyp1a1 in rat liver; type: in vivo; details: 5 days of treatment; not detectable in control livers
Procedure: All animal experiments were conducted in accordance with the Guiding Principles in the Use of Animals in Toxicology (http://www.toxicology.org/ai/air/air6.asp) and were approved by Abbott's Institutional Animal Care and Use Committee (IACUC). Male Sprague-Dawley rats [Crl:CD®(SD)IGS BR], weighing ~250 g at study initiation were obtained from Charles River Laboratories, Inc. (Wilmington, MA). Rats were housed singly in ventilated, stainless steel, wire-bottom hanging cages and fed non-certified Rodent Chow (Harlan Labs, Madison, WI), and water ad libitum and acclimated for at least 5 days after arrival. Rats were randomly assigned to various treatment groups (3 rats/group) and were dosed once daily by oral gavage with vehicle (0.2% hydroxypropylmethylcellulose at a dose volume of 10 ml/kg) or with 30, 100, or 200 mg/kg of A-998679. All rats were fasted overnight after their last dose, weighed and sacrificed under isoflurane anesthesia. […] Serum clinical chemistry parameters were quantified using an Aeroset Clinical Chemistry Analyzer (Abbott Laboratories, Abbott Park, IL) and included alanine amino transferase (ALT), aspartate amino transferase (AST), gamma glutamyltransferase (GGT), and alkaline phosphatase (ALP) activities. […]

Cyp1a1 [3] = experiment: Cyp1a1 mRNA in rat liver after 5 days of dosing (microarray, RT-PCR); type: in vivo
Procedure: All animal experiments were conducted in accordance with the Guiding Principles in the Use of Animals in Toxicology (http://www.toxicology.org/ai/air/air6.asp) and were approved by Abbott's Institutional Animal Care and Use Committee (IACUC). Male Sprague-Dawley rats [Crl:CD®(SD)IGS BR], weighing ~250 g at study initiation were obtained from Charles River Laboratories, Inc. (Wilmington, MA). Rats were housed singly in ventilated, stainless steel, wire-bottom hanging cages and fed non-certified Rodent Chow (Harlan Labs, Madison, WI), and water ad libitum and acclimated for at least 5 days after arrival. […] Serum clinical chemistry parameters were quantified using an Aeroset Clinical Chemistry Analyzer (Abbott Laboratories, Abbott Park, IL) and included alanine amino transferase (ALT), aspartate amino transferase (AST), gamma glutamyltransferase (GGT), and alkaline phosphatase (ALP) activities.
Frozen liver or jejunum were immediately added to 4 ml of TRIzol reagent (Invitrogen Life Technologies) and homogenized using a Polytron 300D homogenizer (Brinkman Instruments, Westbury, NY). […] Nucleic acid concentration was determined by OD 260 nm (Smart-Spec, Bio-Rad Laboratories, Hercules, CA), and RNA integrity was evaluated using an Agilent 2100 bioanalyzer (Agilent Technologies, Foster City, CA). […]

## N#Cc1cccc(-c2noc(-c3cccnc3)n2)c1 [A-998679, 3-(5-pyridin-3-yl-1,2,4-oxadiazol-3-yl) benzonitrile]
Cyp1a1 [1]
  Cyp1a1 mRNA induction: also observed
Cyp1a1 [2]
  Cyp1a1 immunostaining in rat liver: moderate levels in centrilobular regions
Cyp1a1 [3]; 5 days of dosing, in at least one animal starting at the 100 mg/kg dose
  Cyp1a1 mRNA increase in rat liver (microarray): 10–100 fold
Cyp1a1 [3]; 5 days, all doses (30, 100, 200 mg/kg/day)
  Cyp1a1 mRNA expression in rat liver (RT-PCR): strongly induced
